Assay results taken from US20240239729A1, “Functionalization of Lightly Branched Olefin Oligomers” (priority 2021, published 2024).

Columns and labels:
Assay type in all cases: physicochemical
[1] = Solubility in water at 25° C. by visual observation; conditions: 2-3 hours magnetic stirring
Experimental: Solubility measurements were conducted in water at 25° C. Solubility was determined through visual observation after 2-3 hours of magnetic stirring of surfactant solutions having variable concentrations.

[2] = Calcium tolerance (hard water tolerance), surfactant remaining in filtrate by HPLC-ELSD; conditions: 25° C.; 450 ppm surfactant, 420 ppm cations (3:1 Ca2+:Mg2+), stood overnight, 0.22 μm filtrate
Experimental: Calcium tolerance was measured at 25° C. using the following procedure. A surfactant solution containing 450 ppm of alcohol sulfate surfactant and 420 ppm cations (3:1 Ca^2+:Mg^2+) was prepared and allowed to stand overnight. Crystals formed during this time. The supernatant liquid was removed and passed through a 0.22 μm filter to provide a filtrate. The filtrate was then analyzed for surfactant residue. Analysis of the surfactant and salt residue was performed using an Agilent 1100 HPLC combined with SEDEX 75 evaporative light scattering detector (ELSD) using the run conditions specified in Table 4 below. Peak height was utilized to analyze surfactant concentration. Some samples were repeated in triplicate. Calcium tolerance results are specified in Table 5 below.

[3] = Critical micelle concentration in water (Kruss K100 tensiometer)
Experimental: Critical micelle concentrations in water were measured using an A Kruss Laboratory K100 tensiometer. CMC values were determined using the K100 instrument's fully automated measurement method, as described further in the K100 instrument's operating manual.

Solubility at 25° C., (Wt. %) [1]	CMC [3]	SMILES	Calcium tolerance (ppm surfactant remaining) [2]
<0.5% Wt. %	0.001 g/g	CCCCCCCCCCCCCOS(=O)(=O)[O-].[Na+] [Entry 5, Sodium n-Tridecyl Sulfate]	11.2 ppm
–	0.00129 g/g	CCCC(C)CCCC(C)CCCOS(=O)(=O)O (stereo not shown) [Entry 8, 4,8-dimethylundecan-1-sulfate]	–
